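Where inhibition never reached the appropriate level, the endpoint shown equals the highest concentration tested. Otherwise, values were interpolated linearly from a five-concentration, 48-hour dose response in 96-well plates. The concentration for 50% growth inhibition is given as GI50.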 The source made the active and inactive calls. No stated cut-off is given here; in the data, active = GI50 up to about 1.1 µM and inactive = higher.
Key:
Experiment in all cases: DTP human tumour cell line panel, 48 h
MOLT-4 = system: MOLT-4
SF-539 = system: SF-539
SK-OV-3 = system: SK-OV-3
OVCAR-3 = system: OVCAR-3
BT-549 = system: BT-549
SNB-19 = system: SNB-19
MDA-MB-231 = system: MDA-MB-231
UACC-62 = system: UACC-62
U-251 = system: U-251
HOP-62 = system: HOP-62
COLO 205 = system: COLO 205
CCRF-CEM = system: CCRF-CEM
PC-3 = system: PC-3
T47D = system: T47D
MDA-MB-435 = system: MDA-MB-435
SR = system: SR
EKVX = system: EKVX
NCI-H460 = system: NCI-H460
ACHN = system: ACHN
KM12 = system: KM12

Row | SMILES | GI50 (MOLT-4) | GI50 (SF-539) | GI50 (SK-OV-3) | GI50 (OVCAR-3) | GI50 (BT-549) | GI50 (SNB-19) | GI50 (MDA-MB-231) | GI50 (UACC-62) | GI50 (U-251) | GI50 (HOP-62) | GI50 (COLO 205) | GI50 (CCRF-CEM) | GI50 (PC-3) | GI50 (T47D) | GI50 (MDA-MB-435) | GI50 (SR) | GI50 (EKVX) | GI50 (NCI-H460) | GI50 (ACHN) | GI50 (KM12)
1 | Cc1nnc2cc(C(=O)O)c3ccccc3n2c1=O | > 10 µM (inactive) | > 10 µM (inactive) | > 10 µM (inactive) | > 10 µM (inactive) | > 10 µM (inactive) | > 10 µM (inactive) | > 10 µM (inactive) | > 10 µM (inactive) | > 10 µM (inactive) | > 10 µM (inactive) | > 10 µM (inactive) | > 10 µM (inactive) | > 10 µM (inactive) | > 10 µM (inactive) | > 10 µM (inactive) | > 10 µM (inactive) | > 10 µM (inactive) | > 10 µM (inactive) |  | 
2 | Cc1ccc([S+]([O-])(=Nc2ccccc2)C(C(C)C)C(C)(C)Cl)cc1 (stereo unspecified) | 10.5 µM (inactive) | 15.9 µM (inactive) | > 50 µM (inactive) | 29.6 µM (inactive) | 18.1 µM (inactive) | 8.67 µM (inactive) | 17.2 µM (inactive) | 30.9 µM (inactive) | 16.7 µM (inactive) | > 50 µM (inactive) | 0.91 µM (active) | 9.1 µM (inactive) | 16.1 µM (inactive) | 23.6 µM (inactive) | 10.7 µM (inactive) | 16.1 µM (inactive) | 11.4 µM (inactive) | 4.21 µM (inactive) | 31.6 µM (inactive) | 13.5 µM (inactive)
3 | N#CC1C(=O)Nc2sc(C(=O)c3ccc(Br)cc3)c(N)c2C12CCCCC2 (stereo unspecified) | 18.5 µM (inactive) | 17.2 µM (inactive) | 46.3 µM (inactive) | 9.66 µM (inactive) | 27.9 µM (inactive) | 37.9 µM (inactive) | 23 µM (inactive) | 18.3 µM (inactive) | 25.1 µM (inactive) | 38.5 µM (inactive) | 13.7 µM (inactive) | 29 µM (inactive) | 10.4 µM (inactive) | 12.3 µM (inactive) | 18.9 µM (inactive) | 7.96 µM (inactive) | 17.7 µM (inactive) | 28.2 µM (inactive) | 35.6 µM (inactive) | 13.4 µM (inactive)
4 | COc1cccc2c(Nc3ccc(S(=O)(=O)N=C(N)N)cc3)c3ccc([N+](=O)[O-])cc3nc12 | 2.29 µM (inactive) | 4.85 µM (inactive) | 28.6 µM (inactive) | 20.4 µM (inactive) | 13.6 µM (inactive) | 12.6 µM (inactive) | 2.34 µM (inactive) | 5.98 µM (inactive) | 5.61 µM (inactive) | 15.7 µM (inactive) | 18.8 µM (inactive) | 2.38 µM (inactive) | 18.7 µM (inactive) | 1.35 µM (inactive) | 23.6 µM (inactive) | 11.3 µM (inactive) | 26.2 µM (inactive) | 4.32 µM (inactive) | 10.2 µM (inactive) | 3.99 µM (inactive)
5 | c1ccc(C2=NN(c3nc4ccccc4s3)C3(CCCCC3)N2)nc1 | 4.01 µM (inactive) | 46.3 µM (inactive) | > 100 µM (inactive) | 16.7 µM (inactive) | 20.5 µM (inactive) | 40.2 µM (inactive) | 21.6 µM (inactive) | 30.7 µM (inactive) | 20.4 µM (inactive) | 28.9 µM (inactive) | 19.3 µM (inactive) | 29 µM (inactive) | 15.8 µM (inactive) | 7.64 µM (inactive) | 23.4 µM (inactive) | 1.85 µM (inactive) | 33.9 µM (inactive) | 15.2 µM (inactive) | 29.9 µM (inactive) | 22 µM (inactive)
6 | Clc1ccc(-c2cc3nc4ccccc4nc3o2)cc1 | > 100 µM (inactive) | 53.3 µM (inactive) | 59.4 µM (inactive) | > 100 µM (inactive) | 35 µM (inactive) | 31.6 µM (inactive) | > 100 µM (inactive) | 38.3 µM (inactive) | 29.9 µM (inactive) |  | > 100 µM (inactive) | > 100 µM (inactive) | > 100 µM (inactive) | > 100 µM (inactive) | > 100 µM (inactive) | > 100 µM (inactive) | > 100 µM (inactive) | > 100 µM (inactive) | 25.4 µM (inactive) | > 100 µM (inactive)
7 | NCCNc1nc(N2CCCC2)c2nc(Cl)c(NCc3ccccc3)nc2n1 | 2.13 µM (inactive) | 1.96 µM (inactive) | 1.82 µM (inactive) | 1.68 µM (inactive) | 1.98 µM (inactive) | 1.83 µM (inactive) | 1.33 µM (inactive) | 1.75 µM (inactive) | 1.63 µM (inactive) | 1.67 µM (inactive) | 1.69 µM (inactive) | 2.42 µM (inactive) | 2.5 µM (inactive) | 1.66 µM (inactive) | 1.69 µM (inactive) | 1.57 µM (inactive) | 1.73 µM (inactive) | 1.85 µM (inactive) | 1.95 µM (inactive) | 1.71 µM (inactive)
8 | COC1=C2C=[N+](C)C3C(=C2C=CC1OC)Cc1cc2c(cc13)OCO2 (stereo unspecified) | 3.77 µM (inactive) | 11.8 µM (inactive) | 15.1 µM (inactive) | 3.75 µM (inactive) | 12.7 µM (inactive) | 5.28 µM (inactive) | 14.6 µM (inactive) | 7.6 µM (inactive) | 9.42 µM (inactive) | 13.9 µM (inactive) | 5.26 µM (inactive) | 6.37 µM (inactive) | 16.5 µM (inactive) | 5.02 µM (inactive) | 15.4 µM (inactive) | 0.879 µM (active) | 17.9 µM (inactive) |  |  | 2.8 µM (inactive)
9 | CC(=O)Oc1ccn2nc(C)c(Br)c2c1 | 43 µM (inactive) | > 100 µM (inactive) |  | 39.3 µM (inactive) | > 100 µM (inactive) | > 100 µM (inactive) | > 81.3 µM (inactive) | 25.5 µM (inactive) | 97.7 µM (inactive) | > 67.1 µM (inactive) | 25.6 µM (inactive) | 29.9 µM (inactive) | > 53.6 µM (inactive) | 99.1 µM (inactive) | 31.8 µM (inactive) | > 76.7 µM (inactive) | > 83.2 µM (inactive) | 98.2 µM (inactive) | > 100 µM (inactive) | > 100 µM (inactive)
10 | CC(C)[Si](OC1=C(c2ccccc2)C(NC(=O)/C=C/c2ccc([N+](=O)[O-])cc2)CCC1)(C(C)C)C(C)C (stereo unspecified) | > 100 µM (inactive) | > 100 µM (inactive) | > 100 µM (inactive) | > 100 µM (inactive) | > 100 µM (inactive) | > 100 µM (inactive) | > 100 µM (inactive) | > 100 µM (inactive) | > 100 µM (inactive) | > 100 µM (inactive) | > 100 µM (inactive) | > 100 µM (inactive) | > 100 µM (inactive) | > 100 µM (inactive) | > 100 µM (inactive) | > 100 µM (inactive) | > 100 µM (inactive) | > 100 µM (inactive) |  | > 100 µM (inactive)
11 | N#Cc1nc(CCc2nc(C#N)c(N)o2)oc1N | > 10 µM (inactive) | > 10 µM (inactive) | > 10 µM (inactive) |  | > 10 µM (inactive) | > 10 µM (inactive) | > 10 µM (inactive) | > 10 µM (inactive) |  | > 10 µM (inactive) | > 10 µM (inactive) | > 10 µM (inactive) | > 10 µM (inactive) | > 10 µM (inactive) | > 10 µM (inactive) | > 10 µM (inactive) | > 10 µM (inactive) | > 10 µM (inactive) | > 10 µM (inactive) | > 10 µM (inactive)

Source: ChEMBL document CHEMBL1201862, “PubChem BioAssay data set” (2004)
